For one assay, the system named is MALME-3M. Kind of assay: NCI60 five-dose GI50. The format is cell-based. The settings on record: Homo sapiens. A digest of the protocol: (§1)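 Where 50% inhibition was not reached or was exceeded, value reported relative to highest or lowest concentration.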
A further assay concerns OVCAR-4. The assay is described as follows: NCI60 five-dose GI50. Type of assay: cell-based. Conditions: Homo sapiens. A digest of the protocol: as §1
A further assay relates to A549. The assay is described as follows: NCI60 five-dose GI50 (NCI data). The settings on record: Homo sapiens, SI Table S20. Type of assay: cell-based. From the text: (§2) The concentration−response curve generated enables the determination of three criteria, GI50 (drug concentration at which 50% of cell growth is inhibited), total growth inhibition (TGI) and LC50 (drug concentration at which 50% of tumor cells are killed) which can be used to compare effectiveness against any compound tested in the screen since its inception.
(§3) S2.1 NCI Screening Assay Experimental details
NCI Screening Assay Experimental: Cancer cell growth assays (NCI60 screening) 5,6 […]
Unbound dye was […]
removed with five washes of 1% acetic acid, and the plates were allowed to air dry. The dye was then resolubilised in Tris buffer, and the colorimetric absorbance was measured (515 nm). Growth inhibition was measured relative to the response generated from proliferating cells cultured under identical conditions for 48 h. Data from one-dose experiments pertains to the percentage growth at […]
Five-dose study: Serial 5 × 10-fold dilution from an initial DMSO stock solution was performed, prior to incubation at each individual concentration (10 nM, 100 nM, 1 μM, 10 μM and 100 μM). Using seven absorbance measurements (time zero (Tz), control growth (C), and test growth in the presence of drug at the five concentration levels (Ti)), the percentage growth was calculated at each of the drug concentrations levels. […] Three dose response parameters were calculated for each experimental agent. […]

The next assay deals with colon cell line panel. Kind of assay: NCI60 five-dose GI50, colon cell line panel. The settings on record: Homo sapiens, read-out: GI50 range colon cell line panel. The format is cell-based.
Excerpt: as §2, §3
NCI Screening Assay Experimental: Cancer cell growth assays (NCI60 screening) 5,6 One-dose study: Tested compounds were initially solubilised in DMSO, diluted into RPMI 1640 and 5% fetal bovine serum/L-glutamine, and added to 96-well plates containing cell lines previously cultured for 24 h. […] The dye was then resolubilised in Tris buffer, and the colorimetric absorbance was measured (515 nm). Growth inhibition was measured relative to the response generated from proliferating cells cultured under identical conditions for 48 h. […]
Five-dose study: Serial 5 × 10-fold dilution from an initial DMSO stock solution was performed, prior to incubation at each individual concentration (10 nM, 100 nM, 1 μM, 10 μM and 100 μM). Using seven absorbance measurements (time zero (Tz), control growth (C), and test growth in the presence of drug at the five concentration levels (Ti)), the percentage growth was calculated at each of the drug concentrations levels. […]

A further assay deals with NCI-H460 cells. The assay is described as follows: Western blot protein expression analysis. Type of assay: cell-based, human. How it is done: Western blot analysis was performed to evaluate the expression of known proteins associated with cell proliferation, cell cycle, apoptosis, and DNA damage (Figure 10).
Figure 10 Effect of compound 25 on the NCI-H460 cellular expression of proteins involved in proliferation, cell death and DNA damage, analyzed by Western Blotting. […] (B) Graphical representation of the expression of proteins analyzed. β-actin was used as loading control. Results are the mean ± SEM from 3 independent experiments. * p ≤ 0.05, ** p ≤ 0.01 when comparing DMSO vs compound treatment.
After this treatment, cells were centrifuged at 1200 rpm for 5 min at 4 °C, and then lysed in Wynman’s buffer, as previously described,[79] containing EDTA-free protease (Roche, Basel, Switzerland) and phosphatase inhibitors (Merck Life Science) for 30 min with agitation and at 4 °C. Protein lysates were obtained after centrifugation at 13 000 rpm, for 10 min at 4 °C, and stored at −20 °C until used. A modified Lowry protocol, DC Protein assay kit (Bio-Rad, Hercules, California, USA), was used to quantify the total protein content (using a BSA standard calibration curve). The absorbance was analyzed with the Gen5 software on the microplate reader Synergy Mx, […].
Then 20 μg of protein per treatment condition was loaded and separated in 12% SDS-PAGE gels and electrophoretically transferred into nitrocellulose membranes (GE Healthcare Life Science, Chalfont St Giles, UK) for 2 h using a Mini Trans-Blot Cell system (Bio-Rad). The membranes were then stained with Ponceau S solution (PanReac AppliChem, Barcelona, Spain) to confirm that proper protein transfer occurred. Then, the membranes were blocked in Tris-buffered saline solution (TBS) pH 7.4 containing 5% (w/v) nonfat dry milk (Molico, Nestlé, Vevey, Switzerland) or 5% (w/v) BSA for 2 h at RT. The membranes were incubated for 90 min at RT with the following primary antibodies: caspase-3 (1:200; sc-56053), cyclin D1 (1:200; sc-8396), cyclin E (1:100; sc-377100), p21 (1:200; sc-6246), p53 (1:200; sc-126), PARP-1 (1:200; sc-8007), p-Histone H2A.X (1:200; sc-517348), TP53BP1 (1:100; sc-515841), and β-actin (1:200; sc-13118) from Santa Cruz Biotechnology, Dallas, Texas, USA. Following washing steps in TBS-T, the membranes were incubated with their respective secondary antibodies, antimouse IgG horseradish peroxidase (HRP) (Cytiva, Marlborough, Massachusetts, USA) or antirabbit IgG-HRP (Cytiva) for 1 h at RT in an orbital shaker. […] The signal was detected with a Fuji Medical Film Processor (FPM-100A model), and the immunoblots were digitalized using the GS-800 calibrated densitometer (Bio-Rad). Band quantification was carried out with Software Image Lab version 6.0.1 (Bio-Rad), and the molecular weight of protein bands were estimated by comparison with the bands from a protein marker (PageRuler Plus Prestained Protein Ladder, 10−250 kDa, Thermo Fisher Scientific).
A general note: A western blot detects proteins with antibodies after separation by electrophoresis.

Broadly, the GI50 is the concentration giving 50% growth inhibition.

As to `COC(=O)c1c2c(c[n+]([O-])c1C)C(=O)C=C(NCc1ccccc1)C2=O` [Compound 25], the GI50 is 0.048 µM in the assay with MALME-3M, 0.069 µM in the assay with OVCAR-4, 0.232 µM with A549 and 0.157 to 0.247 µM in the assay with colon cell line panel. The “cyclin D1 expression” value in the assay with NCI-H460 cells (48 h) is “increased the expression of cyclin D1 (although not statistically significantly)”. In the assay on NCI-H460 cells (48 h), the p53 expression result was “slightly increased the expression of p53, although not statistically significant”. Further, in the assay on NCI-H460 cells (48 h, 0.35 and 0.7 μM), the PARP-1 expression result was “does not alter the expression levels of PARP-1”. Further, the p21 expression entry in the assay with NCI-H460 cells (48 h, 2 × GI50) was “clearly increased the expression of p21”. The procaspase-3 expression entry with NCI-H460 cells (48 h, both 0.35 and 0.7 μM) is reported as “significant decrease in procaspase-3”. Besides, the “TP53BP1 and p-histone H2A.X expression” value in the assay with NCI-H460 cells (higher concentration tested, not statistically significant) was “increased the expression levels of TP53BP1 and of the p-histone H2A.X”. The “p62, LC3-I and LC3-II expression” value in the assay on NCI-H460 cells (preliminary, data not shown) is “did not alter the expression levels of p62, LC3-I. and LC3-II”.
